A melting point compilation (Tetko et al.; mined from patent text by program, amines drawn as free bases though some values may be those of a salt)

| melting point | SMILES |
| --- | --- |
| 185 to 187 °C | CC(=O)SCC(Cc1noc2ccccc12)C(=O)Nc1cccc(C(=O)O)c1 (stereo unspecified) |
| 95 to 95.5 °C | CCCc1c(OCCCSc2c(C(C)C)nn3ccccc23)ccc(C(C)=O)c1O |
| 197 to 199 °C | CNc1nc(-c2cccc(N)c2)c2cc(OC)c(OC)cc2n1 |
| 243 °C | Cc1ccc(-c2cc(C(=O)C=Cc3ccc(C(=O)O)cc3)cc(C(C)(C)C)c2OCC(C)C)cc1 |
| 110 to 111 °C | CCCn1nc(-c2ccc(O)cc2)c2cccc(-c3ccc(F)cc3)c21 |
| 109 to 110 °C | COc1ccc([N+](=O)[O-])c(OC2CCOC2=O)c1 (stereo unspecified) |
| 75 °C | Cc1ccccc1-n1cnnc1C(F)(F)F |
| > 300 °C | N#Cc1cnc2c(sc3ccc([N+](=O)[O-])cc32)c1Nc1cccc(Br)c1 |
| 172 to 174 °C | NC(=O)Cc1c(F)cccc1C(F)(F)F |
| 164 to 167 °C | O=C(c1ccc(Cl)cn1)c1ccc(Cl)cn1 |
| 148 to 149 °C | CC(C)C[C@H](NC(=O)OCC1CCCCC1)C(=O)N[C@@H](C(C)C)[C@H](O)c1c(-c2ccccc2)c1=O |
| 85 to 87 °C | CCOC(=O)C=Cc1ccc2c(c1)ncn2-c1cccc(N2CCCCC2)c1 |
| 163 °C | O=C(NCc1ccc(C(F)(F)F)c(N2CCCCC2)c1)Nc1cccc2c1CC(O)CC2 (stereo unspecified) |
| 128 °C | Fc1cc(F)c(-c2c(Cl)nc3c(Cl)cnn3c2Cl)c(F)c1 |
| 75 to 77 °C | C#CCOc1cc(N)ccc1C |
| 160 to 164 °C | O=C1CC[C@@H](c2ccccc2)[C@H](c2ccccc2)N1 (relative stereo) |
| 150 to 151 °C | Cc1c(CC(=O)O)c2cc(OCc3csc(-c4ccccc4)n3)ccc2n1Cc1ccccc1 |
| 103 to 106 °C | NC(=O)CCN(CCC(N)=O)Cc1ccccc1 |
| 133 to 135 °C | CCOC(=O)C1(C(=O)OCC)CCC=C2C1CCC1=Cc3c(cnn3-c3ccc(F)cc3)CC12C (stereo unspecified) |
| 113 to 114 °C | OC1(C#Cc2cccc(Cl)c2)CCCNC1 (stereo unspecified) |
| 152 to 154 °C | NC(=S)Nc1ccccc1C1CC1 |
| 91.6 °C | Cc1ccc(-c2ccccc2)cc1CNC(=O)N(C)N |
| 115 to 117 °C | COc1ccc(S(=O)(=O)CC(C)(C)CS(=O)(=O)c2ccc(OC)cc2)cc1 |
| 93 to 94 °C | CO[C@H]1CCCC[C@@]1(OC)c1cccc(OCc2ccc3ccccc3c2)c1 (racemic) |

| melting point | SMILES |
| --- | --- |
| 116 °C | O=C1C(=O)N(c2ccc(Cl)c(Cl)c2)C(=O)N1c1cccc(C(F)(F)F)c1 |
| 92 to 93 °C | OC[C@H]1COc2ccc3scc(Cl)c3c2O1 |
| 189 °C | COc1cc(OC)nc(NC(=O)NS(=O)(=O)c2ccccc2C2=NOCCO2)n1 |
| 89.2 °C | CCCCOn1nnc2ccc(C(O)c3ccccc3)cc21 (stereo unspecified) |
| 167 to 168 °C | O=CN(O)C(CO)CS(=O)(=O)c1ccc(-c2ccc(OC(F)(F)F)cc2)cc1 (stereo unspecified) |
| 46 to 49 °C | CC(=O)CC(=O)c1ccccn1 |
| 40 to 44 °C | CC(=CCO)c1ccc(C2CCCCCCC2)cc1 |
| 97 °C | CC(C)(C)NS(=O)(=O)c1cc(C(=O)Cl)ccc1Cl |
| > 230 °C | CC(=O)C1=C(C#N)C(c2cccc(C#N)c2Br)c2c[nH]nc2N1 (stereo unspecified) |
| 226 °C | O=C(NN=Cc1ccccc1)c1ccc(O)cc1 |
| 98.1 °C | CCCCCCCOc1ccc(COc2ccc(-c3ccc(OC(C)CCCCCC)cc3)cc2)cc1 (stereo unspecified) |
| 179 to 180 °C | COc1ccnc(CCc2nc3cc(-c4ccc(S(=O)(=O)N(C)C)cc4C)cnc3[nH]2)c1 |
| 115 to 119 °C | CC1(C)CCONC1=O |
| 115 to 116 °C | COC(=O)c1ccc2c(=O)c3ccccc3ccc2c1 |
| 91 to 94 °C | COCc1cnc2c([N+](=O)[O-])cccc2c1Cl |
| 78 °C | C=CC1(c2ccccc2)OC(C(=O)OC)Oc2ccc(Cl)cc21 (stereo unspecified) |
| 174 to 175 °C | OC(CCc1ccccc1)c1cnc2sc3ccccc3n12 (stereo unspecified) |
| 169 to 171 °C | O=C(NCc1ccccc1)Nc1ccc(CN2C(=O)[C@H]3CCC[C@H]3N(C(=O)CN3C(=O)c4ccccc4C3=O)c3ccccc32)cc1 (relative stereo) |
| 176 to 178 °C | Nc1nc(-c2cc(Cl)ccc2Cl)nc(N2CCC(O)(c3ccccc3)CC2)n1 |
| 103 to 110 °C | CCN(CC)C(C(C(=O)C(C)(C)C)n1cncn1)C(Cl)(Cl)Cl (stereo unspecified) |
| 193 to 195 °C | CC(C)N1CCN(Cc2ccc(-c3ccc4c(Nc5ccc(Sc6nccn6C)c(Cl)c5)c(C#N)cnc4c3)cc2)CC1 |
| 75 to 76 °C | Fc1cc(Br)c2ccccc2c1Cl |
| 50.5 to 52 °C | COC(=O)c1ccccc1COc1ccc(CCCO)cc1 |
| 153 to 155 °C | CCCCNS(=O)(=O)CC(O)C(O)C(CC1CCCCC1)NC(=O)c1ccccc1 (stereo unspecified) |

| melting point | SMILES |
| --- | --- |
| 245 °C | Nc1cc(C(=O)O)cc(S(N)(=O)=O)c1Nc1ccc2ccccc2c1 |
| 176 to 179 °C | Cc1ccc(-c2ccc(C(=O)Nc3cc4ncc(CN5CCCC5)cc4cc3C)c(F)c2)cc1 |
| 173 to 174 °C | NC(=O)C12CCCC(C1)C1CCC2C1 (stereo unspecified) |
| 149 to 150 °C | CSc1cc(C)nc(SC)c1NC(=O)CCCSc1nc2ccccc2o1 |
| 121 to 123 °C | COc1ccc(C(=O)[C@H]2CCCN2C(=O)C(F)(F)F)cc1OC |
| 217 to 219 °C | COc1cc(CC(=O)O)c(C(=O)O)cc1OC |
| 281 to 283 °C | CCCCc1oc2ccccc2c1-c1ncc(-c2ccc3c(Br)c(OCc4ccc(C(=O)O)cc4)ccc3c2)o1 |
| 114 to 116 °C | COc1ccc(-c2ccc(OC)nn2)c(OCC(O)CNC(C)(C)C)c1 (stereo unspecified) |
| 192 to 193 °C | CC(=O)Nc1nc(-c2ccc(NS(C)(=O)=O)c(Oc3ccc(F)cc3F)c2)cs1 |
| 106 to 108 °C | Nc1nc2ccccc2n1-c1cccc(-c2cscc2CO)c1 |
| 61 to 62 °C | COC(=O)c1cc(S)cc(S)c1 |
| 98 to 108 °C | NC1=NC(c2ccc(OC(F)F)cc2)(c2cccc(-c3cccnc3F)c2)C2=NCC3(CC3)CN12 (stereo unspecified) |
| 86 to 90 °C | CCCCN1CCC(CNC(=O)c2ccc(N)n3c(Cl)c(CC)nc23)CC1 |
| 110 °C | CC(C)c1cc2c(c(O)c1-c1ccc3c(c1)CCCC3)CCCC2 |
| 76 to 77 °C | CCOC(=O)c1cnoc1-c1ccc(Cl)c(F)c1 |
| 131 to 133 °C | CNc1ccccc1C(=O)NCCCn1cncn1 |
| 121 to 126 °C | COc1cc(Nc2c(C#N)cnc3cc(-c4ccc(CN5CCC[C@@H]5C(N)=O)o4)ccc23)c(Cl)cc1Cl |
| 93 to 95 °C | N#CC(NC(=O)C(F)(F)C(F)(F)C(F)(F)F)c1ccc(Cl)cc1 (stereo unspecified) |
| 103 °C | CC(C)(C)C(=O)C(Oc1ccc(Cl)cc1)c1ccccc1 (stereo unspecified) |
| 291 to 292 °C | CC(=O)Nc1ccc(/C=C/C(=O)O)cn1 |
| 160 to 162 °C | CCCCc1nc2c(N)nc(C)c(C)c2n1NC1CCCCC1 |
| 203 to 204 °C | CCOC(=O)c1cc([N+](=O)[O-])c(Nc2cccc(C)n2)c(S(N)(=O)=O)c1 |
| 186 to 192 °C | Cn1ccc2c(ccc3[nH]cc(CCNCc4ccccc4)c32)c1=O |
| 238 °C | C#CCOc1c(OC)cccc1-c1nc2ncccc2[nH]1 |

| melting point | SMILES |
| --- | --- |
| 143 to 145 °C | Cc1nc(N2CCC(Cc3ccc(OC(F)F)cc3)C2=O)sc1C(=O)NCc1ccc(F)cc1 (stereo unspecified) |
| 96 to 97.7 °C | CC(C)(C)C1CC=C(c2cc(C(F)(F)F)cc3[nH]c(N4CCN(c5ncccc5C(F)(F)F)CC4)nc23)CC1 (stereo unspecified) |
| 205 to 208 °C | CN(C)C(=S)Oc1ccc2ncc([N+](=O)[O-])c(-c3ccccc3)c2c1 |
| 205 to 206 °C | Cc1nnc(-c2ccc3occ(-c4ccc(N(C)C)cc4)c3c2)o1 |
| 111 to 113 °C | CNC(=O)N1CC(C)(C)N(C)C(C)(C)CC1=O |
| 89 to 90 °C | CC1(C)CC(SCc2c(Cl)nn(C(F)F)c2C(F)(F)F)=NO1 |
| 186 to 187 °C | O=[N+]([O-])c1cccc2cc(-c3ncns3)[nH]c12 |
| 127 to 129 °C | CC(C)n1c(=O)cc(C(F)(F)F)[nH]c1=O |
| 182 to 183 °C | CC(C)(C)c1cc(N(C(=O)CCC(=O)O)c2cccc(C(=O)O)c2)cc(C(C)(C)C)c1O |
| 124 to 125 °C | Cc1ccc(N(Cc2ccc(N(C)C)cc2)C(=O)Nc2c(C(C)C)cccc2C(C)C)cc1 |
| 130 to 132 °C | COc1ccc(/C(=C/C=C/C(=O)O)C2CCCCC2)cc1 |
| > 250 °C | Cc1cccc2[nH]c(=S)nc(N)c12 |
| 86 to 88 °C | CCNC(SC)=C(C#N)C(=O)OC |
| 152 to 153 °C | Cc1oc(-c2ccccc2)nc1CCOc1ccc(CCCC=C2OC(=O)NC2=O)cc1 |
| 123 to 125 °C | NC(=O)C(CCCCCCCCNC(=O)c1ccccc1O)CC(=O)O (stereo unspecified) |
| 85 to 86 °C | C=CCC(N)(c1ccccc1)C(O)c1ccccc1 (stereo unspecified) |
| 303 °C | O=C(O)c1cn(-c2ccc(F)cc2)c2c(F)c(N3CCC(n4ccnn4)C3)c(F)cc2c1=O (stereo unspecified) |
| 85 °C | CCCCCCCCCCCCCCCCCC(=O)n1cc(F)c(=O)n(C(=O)c2ccccc2)c1=O |
| 161 to 162 °C | Cc1cc(C)c2c(-c3cccc(Cl)c3)cc(=O)n(C)c2n1 |
| 176 to 178 °C | Cc1cc(N=CN(C)C)nc(-c2ccc([N+](=O)[O-])o2)n1 |
| > 260 °C | N#Cc1ccc2c(c1)C(=O)N(C1CCC(=O)NC1=O)C2=O (stereo unspecified) |
| 212 to 215 °C | Cc1[nH]c(=O)[nH]c1C(=O)c1cccs1 |

| SMILES | melting point |
| --- | --- |
| O=[N+]([O-])c1ccccc1C1=NCC(=S)Nc2sccc21 | 207 to 209 °C |
| COc1ccc(CCC(=O)C2C(=O)NC(=O)NC2=O)cc1 | 248 to 250 °C |
| Cc1cc(C2=NOC(c3cc(Cl)cc(Cl)c3)(C(F)(F)F)C2)ccc1C(=O)N(C)c1cncnc1 (stereo unspecified) | 197 to 200 °C |
| CC(C)CCN1C(=O)C(NC(=O)Oc2cccc(Br)c2)C(=O)N(c2ccccc2)c2ccc(Cl)cc21 (stereo unspecified) | 144 to 145 °C |
| O=C(CC(=O)Nc1ccccc1Cl)CS(=O)(=O)C(c1ccc(Cl)cc1)c1ccc(Cl)cc1 | 92 to 95 °C |
| CN1CCC(N(C)c2ncc3ncnc(Nc4ccc(N)c([N+](=O)[O-])c4)c3n2)CC1 | 242 to 246 °C |
| NNC(=C[N+](=O)[O-])NCc1ccc(Cl)nc1 | 188 to 190 °C |
